{"source": "patent US8580799B2", "about": "(priority 2008, dated 2013)", "data": [{"assay": "Measurement of logP values by HPLC on reversed phase columns (EEC directive 79/831 Annex V.A8)", "type": "physicochemical", "conditions": "method [a]: pH 2.3 with 0.1% phosphoric acid and acetonitrile as eluent", "values": [{"molecule": "Nc1ccnc(CON=C(c2ccccc2)c2nsnc2C(F)(F)F)n1", "note": "[Example 8]", "logp": "1.75^[a]"}, {"molecule": "CCCCCOC(=O)Nc1ccnc(CON=C(c2ccccc2)c2nsnc2C(F)(F)F)n1", "note": "[Example 9]", "logp": "4.92^[a]"}, {"molecule": "Nc1nc(CON=C(c2ccccc2)c2nsnc2C(F)(F)F)cs1", "note": "[Example 10]", "logp": "2.26^[a]"}, {"molecule": "O=C(Nc1ccnc(CON=C(c2ccccc2)c2nsnc2C(F)(F)F)n1)c1ccccc1", "note": "[Example 11]", "logp": "4.14^[a]"}, {"molecule": "O=C(CCCc1ccccc1)Nc1ccnc(CON=C(c2ccccc2)c2nsnc2C(F)(F)F)n1", "note": "[Example 12]", "logp": "4.65^[a]"}, {"molecule": "COCCOCC(=O)Nc1ccnc(CON=C(c2ccccc2)c2nsnc2C(F)(F)F)n1", "note": "[Example 13]", "logp": "3.46^[a]"}, {"molecule": "CC(C)CC(=O)Nc1ccnc(CON=C(c2ccccc2)c2nsnc2C(F)(F)F)n1", "note": "[Example 14]", "logp": "4.09^[a]"}, {"molecule": "O=C(Cc1ccccc1)Nc1ccnc(CON=C(c2ccccc2)c2nsnc2C(F)(F)F)n1", "note": "[Example 15]", "logp": "4.09^[a]"}, {"molecule": "CC(C)(C)C(=O)Nc1ccnc(CON=C(c2ccccc2)c2nsnc2C(F)(F)F)n1", "note": "[Example 16]", "logp": "4.24^[a]"}, {"molecule": "CCCCCC(=O)Nc1ccnc(CON=C(c2ccccc2)c2nsnc2C(F)(F)F)n1", "note": "[Example 17]", "logp": "4.54^[a]"}, {"molecule": "O=C1c2ccccc2C(=O)N1c1cccc(CON=C(c2ccccc2)c2nsnc2C(F)(F)F)n1", "note": "[Example 18]", "logp": "4.31^[a]"}, {"molecule": "CCCCCOC(=O)Nc1cccc(CON=C(c2ccccc2)c2nsnc2C(F)(F)F)n1", "note": "[Example 19]", "logp": "5.68^[a]"}]}, {"assay": "Measurement of logP values by HPLC on reversed phase columns (EEC directive 79/831 Annex V.A8)", "type": "physicochemical", "conditions": "method [b]: LC-MS at pH 2.7 with 0.1% formic acid in water and acetonitrile, linear gradient 10% to 95% acetonitrile", "values": [{"molecule": "CCCCC#Cc1nc(CON=C(c2ccc(Cl)cc2)c2nnsc2C)cs1", "note": "[Example 4]", "logp": "5.68^[b]"}, {"molecule": "CCCCC#Cc1nc(CON=C(c2ccc(F)cc2)c2nnsc2C)cs1", "note": "[Example 5]", "logp": "5.19^[b]"}, {"molecule": "CCCCC#Cc1nc(CON=C(c2cccc(F)c2)c2nnsc2C)cs1", "note": "[Example 7]", "logp": "5.25^[b]"}, {"molecule": "CCCCCOC(=O)Nc1cccc(CON=C(c2ccccc2)c2nsnc2C)n1", "note": "[Example 20]", "logp": "5.5^[b]"}, {"molecule": "Cc1nsnc1C(=NOCc1cccc(NC(=O)OC2CCCC2)n1)c1ccccc1", "note": "[Example 21]", "logp": "5.11^[b]"}, {"molecule": "Cc1nsnc1C(=NOCc1cccc(NC(=O)OCc2ccccc2)n1)c1ccccc1", "note": "[Example 22]", "logp": "4.92^[b]"}, {"molecule": "CCCCCCOC(=O)Nc1cccc(CON=C(c2ccccc2)c2nsnc2C)n1", "note": "[Example 23]", "logp": "5.99^[b]"}, {"molecule": "C=CCCOC(=O)Nc1cccc(CON=C(c2ccccc2)c2nsnc2C)n1", "note": "[Example 24]", "logp": "4.65^[b]"}, {"molecule": "CCCCCCCOC(=O)Nc1cccc(CON=C(c2ccccc2)c2nsnc2C)n1", "note": "[Example 26]", "logp": "6.42^[b]"}, {"molecule": "CCCCC(CC)COC(=O)Nc1cccc(CON=C(c2ccccc2)c2nsnc2C)n1", "note": "(stereo not drawn) [Example 27]", "logp": "6.76^[b]"}, {"molecule": "Cc1nsnc1C(=NOCc1cccc(NC(=O)OCCCCC(F)(F)F)n1)c1ccccc1", "note": "[Example 28]", "logp": "4.97^[b]"}, {"molecule": "Cc1nsnc1C(=NOCc1cccc(N(C(=O)OC(C)(C)C)C(=O)OC(C)(C)C)n1)c1ccccc1", "note": "[Example 29]", "logp": "5.47^[b]"}, {"molecule": "CCCCNc1cccc(CON=C(c2ccccc2)c2nsnc2C)n1", "note": "[Example 32]", "logp": "2.41^[b]"}, {"molecule": "CCNc1cccc(CON=C(c2ccccc2)c2nsnc2C)n1", "note": "[Example 33]", "logp": "1.89^[b]"}, {"molecule": "CCCNc1cccc(CON=C(c2ccccc2)c2nsnc2C)n1", "note": "[Example 34]", "logp": "2.11^[b]"}, {"molecule": "C=CCCCCNc1cccc(CON=C(c2ccccc2)c2nsnc2C)n1", "note": "[Example 35]", "logp": "2.78^[b]"}, {"molecule": "Cc1nsnc1C(=NOCc1cccc(NCCCc2ccccc2)n1)c1ccccc1", "note": "[Example 36]", "logp": "2.98^[b]"}, {"molecule": "Cc1nsnc1C(=NOCc1cccc(NCCC2CCCCC2)n1)c1ccccc1", "note": "[Example 37]", "logp": "3.46^[b]"}, {"molecule": "CCCCCNc1cccc(CON=C(c2ccccc2)c2nsnc2C)n1", "note": "[Example 38]", "logp": "2.7^[b]"}, {"molecule": "CCCCCCNc1cccc(CON=C(c2ccccc2)c2nsnc2C(F)(F)F)n1", "note": "[Example 39]", "logp": "3.44^[b]"}, {"molecule": "CCCCC#Cc1nc(CON=C(c2ccccc2)c2nsnc2C(F)(F)F)cs1", "note": "[Example 40]", "logp": "6.37^[b]"}, {"molecule": "CCCCC#Cc1nc(CON=C(c2ccccc2)c2nsnc2C)cs1", "note": "[Example 41]", "logp": "5.72^[b]"}, {"molecule": "CCCCCCNc1cccc(CON=C(c2cccc(F)c2)c2nonc2C)n1", "note": "[Example 42]", "logp": "3.57^[b]"}, {"molecule": "CCCCCCNc1cccc(CON=C(c2ccccc2)c2nonc2C)n1", "note": "[Example 43]", "logp": "3.31^[b]"}]}, {"assay": "Measurement of logP values by HPLC on reversed phase columns (EEC directive 79/831 Annex V.A8)", "type": "physicochemical", "conditions": "reversed phase HPLC column; HCOOH (formic acid) method; read-out: log P(HCOOH)", "values": [{"molecule": "CCCCCCN(C(=O)OC(C)(C)C)c1cccc(CON2C(=O)c3ccccc3C2=O)n1", "chromatographic logP": 5.48}, {"molecule": "CCCCCCN(C(=O)OC(C)(C)C)c1cccc(CON)n1", "chromatographic logP": 3.42}, {"molecule": "Nc1nc(CON2C(=O)c3ccccc3C2=O)cs1", "note": "[2-[(2-amino-1,3-thiazol-4-yl)methoxy]-1H-isoindole-1,3(2H)-dione]", "chromatographic logP": 0.74}, {"molecule": "O=C1c2ccccc2C(=O)N1OCc1csc(Br)n1", "note": "[2-[(2-bromo-1,3-thiazol-4-yl)methoxy]-1H-isoindole-1,3(2H)-dione]", "chromatographic logP": 2.39}, {"molecule": "Cc1nsnc1/C(=N\\OCc1cccc(N2C(=O)c3ccccc3C2=O)n1)c1ccccc1", "note": "[2-{6-[({[(Z)-(4-methyl-1,2,5-thiadiazol-3-yl)(phenyl)methylene]amino}-oxy)methyl]pyridin-2-yl}-1H-isoindole-1,3(2H)-dione]", "chromatographic logP": 3.99}, {"molecule": "CCCCC#Cc1nc(CON2C(=O)c3ccccc3C2=O)cs1", "note": "[2-{[2-(hex-1-yn-1-yl)-1,3-thiazol-4-yl]methoxy}-1H-isoindole-1,3(2H)-dione]", "chromatographic logP": 3.78}, {"molecule": "CCCCC#Cc1nc(CON)cs1", "note": "[4-[(aminooxy)methyl]-2-(hex-1-yn-1-yl)-1,3-thiazole]", "chromatographic logP": 1.76}, {"molecule": "Cc1nsnc1/C(=N\\OCc1cccc(N)n1)c1ccccc1", "note": "[6-[({[(Z)-(4-methyl-1,2,5-thiadiazol-3-yl)(phenyl)methylene]amino}oxy)-methyl]pyridin-2-amine]", "chromatographic logP": 1.54}, {"molecule": "CCCCCCNc1cccc(CON=C(c2cccc(F)c2)c2nnsc2C)n1", "note": "[Example 1, 6-[({[(3-fluorophenyl)(5-methyl-1,2,3-thiadiazol-4-yl)methylene]amino}oxy)methyl]-N-hexylpyridin-2-amine]", "chromatographic logP": 3.06}, {"molecule": "CCCCC#Cc1nc(CON=C(c2cccc(Cl)c2)c2nnsc2C)cs1", "note": "[Example 6, 1-(3-chlorophenyl)-N-([2-(hex-1-yn-1-yl)-1,3-thiazol-4-yl]methoxy)-1-(5-methyl-1,2,3-thiadiazol-4-yl)methanimine]", "chromatographic logP": 5.68}, {"molecule": "CC#CCOC(=O)Nc1cccc(CON=C(c2ccccc2)c2nsnc2C)n1", "note": "[Example 25, But-2-yn-1-yl {6-[({[(4-methyl-1,2,5-thiadiazol-3-yl)(phenyl)methylidene]amino}oxy)-methyl]pyridin-2-yl}carbamate]", "chromatographic logP": 4.28}, {"molecule": "Cc1nsnc1C(=NOCc1cccc(NC(=O)OC(C)(C)C)n1)c1ccccc1", "note": "[Example 30, tert-butyl {6-[({[(4-methyl-1,2,5-thiadiazol-3-yl)(phenyl)methylene]-amino}oxy)methyl]pyridin-2-yl}carbamate]", "chromatographic logP": 4.97}, {"molecule": "CCCCCCNc1cccc(CON=C(c2ccccc2)c2nsnc2C)n1", "note": "[Example 31, N-hexyl-6-[({[(4-methyl-1,2,5-thiadiazol-3-yl)(phenyl)methylidene]amino}oxy)methyl]-pyridin-2-amine]", "chromatographic logP": 3.11}]}, {"assay": "Measurement of logP values by HPLC on reversed phase columns (EEC directive 79/831 Annex V.A8)", "type": "physicochemical", "conditions": "reversed phase HPLC column; method [b]: LC-MS at pH 2.7 with 0.1% formic acid in water and acetonitrile, linear gradient 10% to 95% acetonitrile; read-out: logp", "values": [{"molecule": "CCCCCCNc1cccc(CON=C(c2cccc(F)c2)c2nnsc2C)n1", "note": "[Example 1, 6-[({[(3-fluorophenyl)(5-methyl-1,2,3-thiadiazol-4-yl)methylene]amino}oxy)methyl]-N-hexylpyridin-2-amine]", "chromatographic logP": 3.06}, {"molecule": "CCCCC#Cc1nc(CON=C(c2cccc(Cl)c2)c2nnsc2C)cs1", "note": "[Example 6, 1-(3-chlorophenyl)-N-([2-(hex-1-yn-1-yl)-1,3-thiazol-4-yl]methoxy)-1-(5-methyl-1,2,3-thiadiazol-4-yl)methanimine]", "chromatographic logP": 5.68}, {"molecule": "CC#CCOC(=O)Nc1cccc(CON=C(c2ccccc2)c2nsnc2C)n1", "note": "[Example 25, But-2-yn-1-yl {6-[({[(4-methyl-1,2,5-thiadiazol-3-yl)(phenyl)methylidene]amino}oxy)-methyl]pyridin-2-yl}carbamate]", "chromatographic logP": 4.28}, {"molecule": "Cc1nsnc1C(=NOCc1cccc(NC(=O)OC(C)(C)C)n1)c1ccccc1", "note": "[Example 30, tert-butyl {6-[({[(4-methyl-1,2,5-thiadiazol-3-yl)(phenyl)methylene]-amino}oxy)methyl]pyridin-2-yl}carbamate]", "chromatographic logP": 4.97}, {"molecule": "CCCCCCNc1cccc(CON=C(c2ccccc2)c2nsnc2C)n1", "note": "[Example 31, N-hexyl-6-[({[(4-methyl-1,2,5-thiadiazol-3-yl)(phenyl)methylidene]amino}oxy)methyl]-pyridin-2-amine]", "chromatographic logP": 3.11}]}]}
